Laboratory results published in ChEMBL document CHEMBL6096634, “Exploration of novel 20S proteasome activators featuring anthraquinone structures and their application in hypoxic cardiomyocyte protection” (Bioorg Med Chem, 2024).
Values joined by “and” are separate entries in the source; they are usually repeats but may differ in a detail not shown here. Identical values can stand only once. Active and inactive are the calls of the source. The calls are words filed in the database; no cut-off is given here.

Legend:
[1] = target: T1, 20S proteasome (Homo sapiens) (UniProt P49721+P20618+P28074+P28062+P28065+P28072+P25786+P25787+P25788+P25789+P28066+P60900+O14818+Q8TAA3+P40306+A5LHX3+P49720+P28070+Q99436); assay: (§1) Activation of human erythrocyte-derived 20s proteosome using CT-L as peptide substrate by fluorescence based analysis; assay type: cell-based; settings: for EC200: filed as activator
[2] = target: 20S proteasome; assay: as §1; assay type: cell-based
[3] = target: T1, 20S proteasome (Homo sapiens); assay: (§2) Activation of human erythrocyte-derived 20s proteosome using T-L as peptide substrate by fluorescence based analysis; assay type: cell-based; settings: filed as activator
[4] = target: 20S proteasome; assay: as §2; assay type: cell-based
[5] = target: T1, 20S proteasome (Homo sapiens); assay: (§3) Activation of human erythrocyte-derived 20s proteosome using Casp-L as peptide substrate by fluorescence based analysis; assay type: cell-based; settings: filed as activator
[6] = target: 20S proteasome; assay: as §3; assay type: cell-based
[7] = target: T1, 20S proteasome (Homo sapiens); assay: Activation of human erythrocyte-derived 20s proteosome assessed as fold maximum enhancement using CT-L as peptide substrate by fluorescence based analysis; assay type: cell-based; settings: filed as activator
[8] = target: T1, 20S proteasome (Homo sapiens); assay: Activation of human erythrocyte-derived 20s proteosome assessed as fold maximum enhancement using T-L as peptide substrate by fluorescence based analysis; assay type: cell-based; settings: filed as activator
[9] = target: T1, 20S proteasome (Homo sapiens); assay: Activation of human erythrocyte-derived 20s proteosome assessed as fold maximum enhancement using Casp-L as peptide substrate by fluorescence based analysis; assay type: cell-based; settings: filed as activator
[10] = target: 26S proteasome (Homo sapiens) (UniProt Q99460+P49721+P20618+P28074+P28062+P28065+P28072+O00487+P25786+P25787+P25788+P25789+P28066+P60900+O14818+Q8TAA3+P40306+A5LHX3+P49720+P28070+Q99436+Q16186+P35998+P62191+P43686+P62333+P17980+P62195+Q13200+O43242+O00232+O00231+Q15008+P51665+Q9UNM6+P55036+P48556+P60896); assay: Activation of 26s proteosome (unknown origin); assay type: protein-complex assay
[11] = target: T1, 20S proteasome (Homo sapiens); assay: Activation of human erythrocyte-derived 20s proteosome using CT-L as peptide substrate at 10 uM by fluorescence based analysis relative to control; assay type: cell-based; settings: filed as activator
[12] = system: H9c2; assay: Protection against hypoxia-induced cell damage in rat H9c2 cells at 0.025 uM incubated for 14 hrs by MTT assay; assay type: functional, cell-based
[13] = system: HEK293; assay: Inhibition of […]-induced ER stress in HEK293 cells harbouring XBP1-delta DBD-Luc cells assessed as decrease in luciferase activity incubated for 8 hrs by […]; assay type: functional, cell-based; settings: Homo sapiens, dose 10-20 µM
[14] = target: 20S proteasome; assay: Activation of 20s proteosome (unknown origin) mediated chymotrypsin-like activity; assay type: protein-complex assay, Homo sapiens
[15] = target: T1, 20S proteasome (Homo sapiens); assay: Activation of 20s proteosome (unknown origin) mediated chymotrypsin-like activity assessed as fold maximum enhancement; assay type: protein-complex assay; settings: filed as activator
[16] = system: H9c2; assay: Protection against hypoxia-induced cell damage in rat H9c2 cells at 0.05 uM incubated for 14 hrs by MTT assay; assay type: functional, cell-based
[17] = system: H9c2; assay: Upregulation of Ki-67 expression in rat H9c2 cells at 0.25 uM under normoxic condition by qRT-PCR analysis; assay type: functional, cell-based
[18] = system: H9c2; assay: Upregulation of Ki-67 expression in rat H9c2 cells at 0.25 uM under hypoxic condition by qRT-PCR analysis; assay type: functional, cell-based
[19] = system: H9c2; assay: Effect on PCNA expression in rat H9c2 cells at 0.25 uM under normoxic condition by qRT-PCR analysis; assay type: functional, cell-based
[20] = system: H9c2; assay: Effect on PCNA expression in rat H9c2 cells at 0.25 uM under hypoxic condition by qRT-PCR analysis; assay type: functional, cell-based

SMILES: Cc1cccc(Nc2cc(NCC(C)C)c3noc4c3c2C(=O)c2ccccc2-4)c1
- EC200 [1]: 0.46 µM and 0.38 µM
- EC50 [2]: 1.83 µM and 0.85 µM
- EC200 [3]: 0.75 µM
- fold change (FC) [3]: 5.98
- EC50 [4]: 2.33 µM
- EC200 [5]: 0.93 µM
- EC50 [6]: 1.9 µM
- fold change (FC) [7]: 6.22
- fold change (FC) [8]: 4.37
- fold change (FC) [9]: 9.77
- Activity [10]: inactive
- Activity [11]: 472%
- Activity [12]: Active
- inhibition [13]: Active

SMILES: CC1(C)CC[C@]2(C(=O)O)CC[C@]3(C)C(=CC[C@@H]4[C@@]5(C)CC[C@H](O)C(C)(C)[C@@H]5CC[C@]43C)[C@@H]2C1 [OLEANOLIC_ACID]
- EC50 [14]: 2.7 µM
- fold change (FC) [15]: 8

SMILES: O=C1c2cccc(O)c2C(=O)c2c(O)cc(C(=O)N3CCc4ccccc4C3)cc21
- EC200 [1]: 1.14 µM
- EC50 [2]: 4.02 µM
- fold change (FC) [3]: 3.79
- Activity [11]: 350%

SMILES: O=C1c2cccc(O)c2C(=O)c2c(O)cc(C(=O)N3CCC(c4ccccc4)CC3)cc21
- EC200 [1]: 1.37 µM
- EC50 [2]: 2.72 µM
- fold change (FC) [3]: 3.71
- Activity [11]: 233%

SMILES: Cc1ccc(Nc2cc(NCC(C)C)c3noc4c3c2C(=O)c2ccccc2-4)cc1
- EC200 [1]: 0.72 µM
- EC50 [2]: 3 µM
- fold change (FC) [3]: 4.8
- Activity [11]: 359%

SMILES: CN(CCc1ccccc1)C(=O)c1cc(O)c2c(c1)C(=O)c1cccc(O)c1C2=O
- Activity [1]: inactive
- Activity [11]: 148%

SMILES: COc1ccc(NC(=O)c2cc(O)c3c(c2)C(=O)c2cccc(O)c2C3=O)cc1
- EC200 [1]: 0.32 µM
- EC50 [2]: 2.05 µM
- fold change (FC) [3]: 8.91
- Activity [11]: 696%

SMILES: COc1ccc(Nc2cc(NCC(C)C)c3noc4c3c2C(=O)c2ccccc2-4)cc1
- EC200 [1]: 0.7 µM
- EC50 [2]: 3.02 µM
- fold change (FC) [3]: 3.54
- Activity [11]: 276%

SMILES: CC(C)CNc1cc(NC2CC2)c2c3c(onc13)-c1ccccc1C2=O
- EC200 [1]: 1.41 µM
- EC50 [2]: 3.3 µM
- fold change (FC) [3]: 4.71
- Activity [11]: 361%

SMILES: Cc1cccc(NC(=O)c2cc(O)c3c(c2)C(=O)c2cccc(O)c2C3=O)c1
- EC200 [1]: 1.67 µM
- EC50 [2]: 2.26 µM
- fold change (FC) [3]: 6.5
- Activity [11]: 567%

SMILES: O=C1c2cccc(O)c2C(=O)c2c(O)cc(C(=O)N3CCN(c4nccs4)CC3)cc21
- EC200 [1]: 1.18 µM
- EC50 [2]: 3.57 µM
- fold change (FC) [3]: 4.07
- Activity [11]: 453%

SMILES: Cc1ccc(Nc2cc(NCC(C)C)c(N)c3c2C(=O)c2ccccc2C3=O)cc1
- EC200 [1]: 0.66 µM
- EC50 [2]: 3.68 µM
- fold change (FC) [3]: 5.38
- Activity [11]: 377%
- Activity [16]: Active
- Activity [17]: Active
- Activity [18]: Active
- Activity [19]: inactive
- Activity [20]: inactive
- inhibition [13]: Active

SMILES: CN1CCN(c2ccc(NC(=O)c3cc(O)c4c(c3)C(=O)c3cccc(O)c3C4=O)cc2)CC1
- EC200 [1]: 3.85 µM
- EC50 [2]: 6.12 µM
- fold change (FC) [3]: 7.32
- Activity [11]: 549%
